Reference: PubChem BioAssay (NCI)
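Method: 48-hour compound exposure of cells in 96-well plates, five concentrations, linear interpolation of endpoints. TGI: concentration producing complete growth inhibition.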

Legend:
Assay in all cases: DTP human tumour cell line panel, 48 h
NCI-H226 lung = system: NCI-H226 lung
MDA-MB-231 breast = system: MDA-MB-231 breast
SF-268 CNS = system: SF-268 CNS
OVCAR-4 ovarian = system: OVCAR-4 ovarian
SR leukemia = system: SR leukemia
NCI/ADR-RES ovarian = system: NCI/ADR-RES ovarian
EKVX NSCLC = system: EKVX NSCLC
OVCAR-5 ovarian = system: OVCAR-5 ovarian
UO-31 renal = system: UO-31 renal
HCC-2998 colon = system: HCC-2998 colon

## CO[C@H]1C[C@H](O[C@H]2CC[C@]3(C=O)[C@H]4CC[C@]5(C)[C@@H](C6=CC(=O)OC6)CC[C@]5(O)[C@@H]4CC[C@]3(O)C2)O[C@H](C)[C@H]1O[C@@H]1O[C@H](CO[C@@H]2O[C@H](CO)[C@@H](O)[C@H](O)[C@H]2O)[C@@H](O)[C@H](O)[C@H]1O
NCI-H226 lung
  TGI: 0.32 µM
MDA-MB-231 breast
  TGI: 2.1 µM
SF-268 CNS
  TGI: 0.164 µM
OVCAR-4 ovarian
  TGI: 0.144 µM
SR leukemia
  TGI: 0.419 µM
NCI/ADR-RES ovarian
  TGI: 0.15 µM
EKVX NSCLC
  TGI: 0.0631 µM
OVCAR-5 ovarian
  TGI: 0.199 µM
UO-31 renal
  TGI: 0.144 µM

## O=C(O)C1CCCN1Cc1ccc2c(c1)OCO2 (stereo not given)
NCI-H226 lung
  TGI: > 100 µM
MDA-MB-231 breast
  TGI: > 100 µM
SF-268 CNS
  TGI: > 100 µM
OVCAR-4 ovarian
  TGI: > 100 µM
SR leukemia
  TGI: > 100 µM
NCI/ADR-RES ovarian
  TGI: > 100 µM
EKVX NSCLC
  TGI: > 100 µM
OVCAR-5 ovarian
  TGI: > 100 µM
UO-31 renal
  TGI: > 100 µM

## O=C1CCC2(c3ccc(F)cc3)Nc3ncncc3N12 (stereo not given)
NCI-H226 lung
  TGI: > 10 µM
SF-268 CNS
  TGI: > 10 µM
OVCAR-4 ovarian
  TGI: > 10 µM
SR leukemia
  TGI: > 10 µM
NCI/ADR-RES ovarian
  TGI: > 10 µM
EKVX NSCLC
  TGI: > 10 µM
HCC-2998 colon
  TGI: > 10 µM
OVCAR-5 ovarian
  TGI: > 10 µM
UO-31 renal
  TGI: > 10 µM

## CC1(CC(=O)OC(C#C[Si](C)(C)C)Cc2ccccc2)OCCO1 (stereo not given)
NCI-H226 lung
  TGI: > 100 µM
MDA-MB-231 breast
  TGI: > 100 µM
SF-268 CNS
  TGI: > 100 µM
OVCAR-4 ovarian
  TGI: > 100 µM
NCI/ADR-RES ovarian
  TGI: > 100 µM
EKVX NSCLC
  TGI: > 100 µM
OVCAR-5 ovarian
  TGI: > 100 µM
UO-31 renal
  TGI: > 100 µM

## COc1ccc(C2Oc3c(cccc3OC)C=C2[N+](=O)[O-])cc1 (stereo not given)
MDA-MB-231 breast
  TGI: 13.6 µM
SF-268 CNS
  TGI: 11.3 µM
OVCAR-4 ovarian
  TGI: 10.1 µM
SR leukemia
  TGI: > 100 µM
NCI/ADR-RES ovarian
  TGI: 14.5 µM
EKVX NSCLC
  TGI: 25.6 µM
OVCAR-5 ovarian
  TGI: 6.48 µM
UO-31 renal
  TGI: 3.14 µM

## CC(C)(C)OC(=O)N1C(=O)OC[C@@H]2C=C[C@@H]21
MDA-MB-231 breast
  TGI: > 100 µM
SF-268 CNS
  TGI: > 100 µM
OVCAR-4 ovarian
  TGI: > 100 µM
NCI/ADR-RES ovarian
  TGI: > 100 µM
EKVX NSCLC
  TGI: > 100 µM
OVCAR-5 ovarian
  TGI: > 100 µM

## Cc1ccccc1Nc1cn(CCOc2ccccc2)c(=O)n(CCOc2ccccc2)c1=O
SF-268 CNS
  TGI: > 100 µM
OVCAR-4 ovarian
  TGI: > 100 µM
NCI/ADR-RES ovarian
  TGI: > 100 µM
EKVX NSCLC
  TGI: > 100 µM
HCC-2998 colon
  TGI: > 100 µM
OVCAR-5 ovarian
  TGI: > 100 µM
UO-31 renal
  TGI: > 100 µM

## CC1OC2OC3C(OCC(O)C3O)OC(=O)[C@]34CCC(C)(C)CC3C3=CCC5[C@@]6(C)C[C@H](O)[C@H](OC7OC(CO)C(O)C(O)C7OC7OC(COC(=O)CC(C)(O)CC(=O)OC1C(O)C2O)C(O)C(O)C7O)[C@@](C)(CO)C6CC[C@@]5(C)[C@]3(C)CC4 (stereo not given in full)
NCI-H226 lung
  TGI: 5.19 µM
MDA-MB-231 breast
  TGI: 3.11 µM
SF-268 CNS
  TGI: 2.97 µM
OVCAR-4 ovarian
  TGI: 3.15 µM
NCI/ADR-RES ovarian
  TGI: 11.9 µM
HCC-2998 colon
  TGI: 2.63 µM
OVCAR-5 ovarian
  TGI: 2.85 µM
UO-31 renal
  TGI: 2.52 µM

## Cn1c(=O)c2c(nc3sc4ncccc4c(=O)n32)n(C)c1=O
NCI-H226 lung
  TGI: > 100 µM
MDA-MB-231 breast
  TGI: > 100 µM
SF-268 CNS
  TGI: > 100 µM
OVCAR-4 ovarian
  TGI: > 100 µM
NCI/ADR-RES ovarian
  TGI: > 100 µM
EKVX NSCLC
  TGI: > 100 µM
HCC-2998 colon
  TGI: > 100 µM
OVCAR-5 ovarian
  TGI: > 100 µM
UO-31 renal
  TGI: > 100 µM

## C/C(=C\[C@H]1C[C@@H]([C@@H]2CC[C@]34C[C@]23C=C[C@@H]2[C@@]3(C)CC=C5C[C@@H](c6ccccc6)OC[C@]5(C)[C@@H]3C[C@@H](O)[C@]24C)C(=O)O1)CO
NCI-H226 lung
  TGI: > 94.2 µM
MDA-MB-231 breast
  TGI: 54.4 µM
SF-268 CNS
  TGI: > 70.1 µM
OVCAR-4 ovarian
  TGI: > 62.7 µM
NCI/ADR-RES ovarian
  TGI: > 100 µM
EKVX NSCLC
  TGI: > 52 µM
HCC-2998 colon
  TGI: > 26.4 µM
OVCAR-5 ovarian
  TGI: 34.2 µM
UO-31 renal
  TGI: 9.54 µM

## CCC(/C=C/c1ccccc1)=N\N=C(\C=C\c1ccccc1)CC
NCI-H226 lung
  TGI: > 100 µM
SF-268 CNS
  TGI: > 100 µM
OVCAR-4 ovarian
  TGI: > 100 µM
SR leukemia
  TGI: > 100 µM
EKVX NSCLC
  TGI: > 100 µM
HCC-2998 colon
  TGI: > 100 µM
OVCAR-5 ovarian
  TGI: > 100 µM
UO-31 renal
  TGI: > 100 µM

## CC[C@]12C=CCN3CCC4(c5cc(N=Nc6ccc([N+](=O)[O-])cc6)c(OC)cc5N(C)[C@H]4[C@@](O)(C(=O)OC)[C@@H]1OC(C)=O)[C@@H]32 (stereo not given in full)
NCI-H226 lung
  TGI: 56.5 µM
MDA-MB-231 breast
  TGI: 35.9 µM
SF-268 CNS
  TGI: > 100 µM
OVCAR-4 ovarian
  TGI: > 100 µM
SR leukemia
  TGI: 32 µM
NCI/ADR-RES ovarian
  TGI: 42.2 µM
EKVX NSCLC
  TGI: 56.9 µM
OVCAR-5 ovarian
  TGI: 28.2 µM
UO-31 renal
  TGI: 25.9 µM

## Nc1nc(Cl)nc2c1ncn2C1CCC(CO)O1 (stereo not given)
NCI-H226 lung
  TGI: > 100 µM
OVCAR-4 ovarian
  TGI: > 100 µM
SR leukemia
  TGI: > 100 µM
NCI/ADR-RES ovarian
  TGI: > 100 µM
OVCAR-5 ovarian
  TGI: > 100 µM
UO-31 renal
  TGI: > 100 µM

## O=C(CN1C(=O)c2ccccc2C1=O)OCC1CCCN2CCCCC12 (stereo not given)
NCI-H226 lung
  TGI: > 100 µM
MDA-MB-231 breast
  TGI: > 100 µM
SF-268 CNS
  TGI: > 100 µM
OVCAR-4 ovarian
  TGI: > 100 µM
NCI/ADR-RES ovarian
  TGI: > 100 µM
EKVX NSCLC
  TGI: > 100 µM
HCC-2998 colon
  TGI: > 100 µM
UO-31 renal
  TGI: > 100 µM

## CCOC(=O)c1nc2ccc(C(F)(F)F)cc2nc1Nc1ccc(OC)c(OC)c1
NCI-H226 lung
  TGI: > 100 µM
MDA-MB-231 breast
  TGI: > 100 µM
SF-268 CNS
  TGI: > 100 µM
SR leukemia
  TGI: > 100 µM
NCI/ADR-RES ovarian
  TGI: > 100 µM
EKVX NSCLC
  TGI: > 100 µM
HCC-2998 colon
  TGI: > 100 µM
OVCAR-5 ovarian
  TGI: > 100 µM
UO-31 renal
  TGI: > 100 µM

## COc1cc(OC)nc(NC(=O)NS(=O)(=O)c2cccc3ncn(C)c(=O)c23)n1
NCI-H226 lung
  TGI: > 100 µM
MDA-MB-231 breast
  TGI: > 100 µM
SF-268 CNS
  TGI: > 100 µM
OVCAR-4 ovarian
  TGI: > 100 µM
SR leukemia
  TGI: > 100 µM
NCI/ADR-RES ovarian
  TGI: > 100 µM
EKVX NSCLC
  TGI: > 100 µM
OVCAR-5 ovarian
  TGI: > 100 µM
UO-31 renal
  TGI: > 100 µM

## Nc1nc(Cl)cc(NCC2(CO)CCC(OCc3ccccc3)C2)n1 (stereo not given)
NCI-H226 lung
  TGI: 84.1 µM
MDA-MB-231 breast
  TGI: 42.8 µM
SF-268 CNS
  TGI: > 100 µM
OVCAR-4 ovarian
  TGI: 65.2 µM
SR leukemia
  TGI: 80.2 µM
NCI/ADR-RES ovarian
  TGI: 25 µM
EKVX NSCLC
  TGI: 59.4 µM
OVCAR-5 ovarian
  TGI: > 100 µM
UO-31 renal
  TGI: 99.4 µM

## CN(C)N1C(=O)CC2(CCN(CCCC(=O)c3ccc(F)cc3)CC2)C1=O
NCI-H226 lung
  TGI: > 100 µM
MDA-MB-231 breast
  TGI: > 100 µM
SF-268 CNS
  TGI: > 100 µM
SR leukemia
  TGI: > 100 µM
NCI/ADR-RES ovarian
  TGI: > 100 µM
OVCAR-5 ovarian
  TGI: > 100 µM
UO-31 renal
  TGI: > 100 µM

## CCOC(=O)c1cc(Cl)ccc1OC(N)=O
NCI-H226 lung
  TGI: > 100 µM
SF-268 CNS
  TGI: > 100 µM
OVCAR-4 ovarian
  TGI: > 100 µM
NCI/ADR-RES ovarian
  TGI: > 100 µM
EKVX NSCLC
  TGI: > 100 µM
HCC-2998 colon
  TGI: > 100 µM
OVCAR-5 ovarian
  TGI: > 100 µM
UO-31 renal
  TGI: > 100 µM

## CC(=O)OCC(OC(C)=O)C(OC(C)=O)C(OC(C)=O)C(/C=N\Nc1nc2ccccc2c(=O)[nH]1)OC(C)=O (stereo not given)
NCI-H226 lung
  TGI: > 100 µM
MDA-MB-231 breast
  TGI: > 100 µM
SF-268 CNS
  TGI: > 100 µM
SR leukemia
  TGI: > 100 µM
NCI/ADR-RES ovarian
  TGI: > 100 µM
EKVX NSCLC
  TGI: > 100 µM
HCC-2998 colon
  TGI: > 100 µM
OVCAR-5 ovarian
  TGI: > 100 µM
UO-31 renal
  TGI: > 100 µM

## N.N.N.N.O=S(=O)([O-])[O-].[Co+3].[OH3+].[OH3+]
SF-268 CNS
  TGI: > 100 µM
OVCAR-4 ovarian
  TGI: > 100 µM
EKVX NSCLC
  TGI: > 100 µM
OVCAR-5 ovarian
  TGI: > 100 µM
UO-31 renal
  TGI: > 100 µM

## CO/N=C/c1c(-c2ccc(Cl)cc2)c(/C=N/OC)n2c1sc1ccccc12
MDA-MB-231 breast
  TGI: > 100 µM
SF-268 CNS
  TGI: > 100 µM
OVCAR-4 ovarian
  TGI: > 100 µM
NCI/ADR-RES ovarian
  TGI: > 100 µM
EKVX NSCLC
  TGI: > 100 µM
HCC-2998 colon
  TGI: > 100 µM
OVCAR-5 ovarian
  TGI: > 100 µM
UO-31 renal
  TGI: > 100 µM

## O=C(O)CCCC#CCCCC(=O)O
SF-268 CNS
  TGI: > 100 µM
OVCAR-4 ovarian
  TGI: > 100 µM
SR leukemia
  TGI: > 100 µM
NCI/ADR-RES ovarian
  TGI: > 100 µM
EKVX NSCLC
  TGI: > 100 µM
HCC-2998 colon
  TGI: > 100 µM
OVCAR-5 ovarian
  TGI: > 100 µM
UO-31 renal
  TGI: > 100 µM
